Assay results: US4895863A, “Novel imidazo[2,1-B]benzothiazoles” (Roussel Uclaf, priority 1987, dated 1990)

target: benzodiazepine receptors; test: Affinity for benzodiazepine receptors: inhibition of specific binding of 3H-labelled flunitrazepam in rat rear brain membranes; set-up: species or system rats; conditions: inhibition of 50% of specific binding of 0.6×10^-9 mol 3H-flunitrazepam; membranes from rear portion of rat brain
Description: The affinity of the active ingredients for benzodiazepine receptors was measured using a radioactively labelled (^3 H) compound flunitrazepam in a modified version of the method of Squires et al [Nature, (1977), Vol. 266, p. 732]. The values given in Table 2 below are the concentration (mol×10^-9) of the compound under test which inhibited 50% of the specific binding of 0.6×10^-9 mol of ^3 H-labelled flunitrazepam in preparations of membrances from the rear portion of the brain in rats (IC50 values).

Row | SMILES | IC50 [µM]
1 | COc1ccc2c(c1)sc1nc(C(=O)C3CC3)cn12 [Example 1, (7-Methoxy-imidazo[2,1-b]benzothiazol-2-yl)-cyclopropylmethanone] | 0.0025
2 | O=C(c1cn2c(n1)sc1ccccc12)C1CC1 [Example 2] | 0.02
3 | O=C(c1cn2c(n1)sc1cc(OCc3ccccc3)ccc12)C1CC1 [Example 4, (7-benzyloxy-imidazo[2,1-b]-benzothiazol-2-yl) cyclopropyl-methanone] | 0.0032
4 | O=C(c1cn2c(n1)sc1cc3c(cc12)OCO3)C1CC1 [Example 5] | 0.158
5 | O=C(c1cn2c3c(sc2n1)CCCC3)C1CC1 [Example 6, (5,6,7,8-tetrahydro-imidazo[2,1-b]benzothiazol-2-yl) cyclopropyl-methanone] | 0.079
6 | CC(C)Oc1ccc2c(c1)sc1nc(C(=O)C3CC3)cn12 [Example 7, (7-isopropoxy-imidazo[2,1-b]benzothiazol-2-yl) cyclopropyl-methanone] | 0.0063
7 | Cc1cc2sc3nc(C(=O)C4CC4)cn3c2cc1C [Example 8] | 0.06
